From patent US12629424B2, “Targeting Pleckstrin-2 for treating cancer” (Northwestern University, priority 2018, dated 2026)

Tests used:
GST-Plek2 [1] = target: T1, GST-Plek2 (Homo sapiens, UniProt Q9NYT0); experiment: isothermal titration calorimetry (ITC) of NUP-17d and its enantiomers with Plek2; assay type: binding; conditions: PBS with 0.5% DMSO, 200 μM compound into 20 μM GST-Plek2
T1 construct: made in house
T1 sequence (Q9NYT0 1-353): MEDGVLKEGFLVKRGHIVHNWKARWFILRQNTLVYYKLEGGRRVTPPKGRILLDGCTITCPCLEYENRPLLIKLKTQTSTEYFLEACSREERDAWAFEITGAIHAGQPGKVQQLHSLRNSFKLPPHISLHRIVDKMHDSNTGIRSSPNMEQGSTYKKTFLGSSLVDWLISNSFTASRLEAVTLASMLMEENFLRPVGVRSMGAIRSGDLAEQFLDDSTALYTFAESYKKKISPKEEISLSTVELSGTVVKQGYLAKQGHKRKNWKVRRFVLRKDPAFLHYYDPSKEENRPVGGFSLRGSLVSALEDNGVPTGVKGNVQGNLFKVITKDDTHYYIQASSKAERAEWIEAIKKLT
Procedure: (§1) FIG. 4. NUP-17 directly targets and binds to Plek2. (A) Plek2 was overexpressed in mouse fetal liver Ter119 negative erythroblasts. NUP-17 (40 μM) were added in the control cells and Plek2 overexpressed cells. Cell number was calculated 48 hours after culture. (B) Plek2 was overexpressed in Cos-7 cells. Phalloidin 647 was used to stain actin in the indicated cells. 10 μM of NUP-17 was used. (C) Quantitative analysis of B. (D) ITC experiments using the microCal ITC200 instrument. 200 μM NUP-17 was titrated into a solution of 20 μM GST control or GST-Plek2. *P<0.05; *** P<0.001. 17 represents NUP-17.
(§2) FIG. 17. Isothermal titration calorimetry (ITC) experiments of NUP-17d and its enantiomers. -17-d: delta H=−1.9 kcal/mol delta S=+22.9 cal/molK; -17-1b: delta H=−2.2 kcal/mol delta S=+22.8 cal/molK; -17-2b: delta H=−1.5 kcal/mol delta S=+24.3 cal/molK; -17-1a: delta H=−5.3 kcal/mol delta S=+7.3 cal/molK; and -17-2a: delta H=−4.2 kcal/mol delta S=+13.9 cal/molK.
(§3) To confirm that the inhibitory effect of NUP-17 on the proliferation and differentiation of fetal liver erythroid cells is due to Plek2 binding, we overexpressed Plek2 in the fetal liver cells and treated the cells with NUP-17. […] In addition, we also overexpressed Plek2 in Cos-7 cells, which induced prominent lamellipodia formation as previously reported (13).
Biophysical Assays and Counter-Screening. To confirm the interaction of the optimized compounds with Plek2, we will perform isothermal calorimetry (ITC) using the recombinant protein GST-Plek2 or Flag-tagged Plek2 we have produced. Specifically, MicroCal ITC200 instrument (GE Healthcare) with the jacket temperature will set at 25° C. The protein and our compound solutions will be prepared in PBS with 0.5% DMSO. Titrations of 200 μM compound into 20 μM GST-Plek2 solutions will be sufficient for 15 injections of 2.5 μl each with 120 seconds spacing between injections and a mixing speed at 900 rpm. An initial 0.1 μl injection will subsequently be removed during data analysis. A control experiment will be performed by titrating 200 μM compound into a solution of 20 μM GST. […]

[2] = test system: Plek2-overexpressed Cos-7 cells; experiment: Lamellipodia formation assay in Plek2-overexpressed Cos-7 cells (phalloidin actin stain); assay type: cell-based; conditions: 10 μM
Procedure: as §1
FIG. 5. Identification of a potent analog of NUP-17. (A) NUP-17d was analyzed for the inhibitory effects on fetal liver erythroblasts as in FIG. 3. Indicated doses were used. (B) The structure of NUP-17d. (C) Plek2 was overexpressed in Cos-7 cells. Phalloidin 647 was used to stain actin in the indicated cells. 10 μM of NUP-17 and NUP-17d were used. (D) Quantitative analysis of C. **P<0.01; *** P<0.001. 17 and 17d represent NUP-17 and NUP-17d, respectively.
To confirm that the inhibitory effect of NUP-17 on the proliferation and differentiation of fetal liver erythroid cells is due to Plek2 binding, we overexpressed Plek2 in the fetal liver cells and treated the cells with NUP-17. […]

JAK2V617F knockin mice = experiment: JAK2V617F knockin MPN mouse model; assay type: in vivo; conditions: 25 mg/kg once every two days, one month
Procedure: FIG. 15A and FIG. 15B. Compound NUP-17d ameliorates myeloproliferation and thrombosis in JAK2^V617F knockin mice. FIG. 15A. RBC and WBC count of indicated mice after NUP-17d treatment. Two-month-old JAK2^V617F knockin mice were treated with NUP-17d once every two days for three weeks. Wild type (WT) littermate control mice were used for comparison *P<0.05; ** P<0.01; *** P<0.001. FIG. 15B. H&E stain of the spleen and lung sections. Inserted panels with high magnification reveal vascular occlusions. Scale bars: 100 μm.
We tested the effects of Plek2 inhibitors in the JAK2^V617F knockin MPN mouse model. (See FIGS. 15A and 15B). The same dosage and dosing schedule of NUP-17d (25 mg/kg, once every two days) were applied to JAK2^V617F knockin mice as those applied to the Epo model. We have treated the mice for one month. […] (See FIG. 15A). […] (See FIG. 15B).

[3] = test system: mouse fetal liver erythroid progenitors; experiment: Proliferation of mouse fetal liver erythroid progenitors cultured in erythropoietin containing medium (Plek2 functional screening system); assay type: cell-based; conditions: mouse fetal liver erythroblasts, Epo medium
Procedure: FIG. 3. NUP-17 inhibits Plek2 function in fetal liver erythropoiesis. (A) Mouse Ter119 (a mature erythroid cell marker) negative erythroblasts were purified and cultured for two days (D0-D2). The protein levels of Plek2 and Hsc70 loading control were analyzed by a Western blot assay. (B) The structure of NUP-17. (C-D) The proliferation and enucleation (DNA negative) profiles of cells from A treated with different concentration of NUP-17 for 48 hours. (E) Simulated Plek2 DEP domain interaction with NUP-17 using Schrodinger software. Amino acids that are potentially critical for the interaction are highlighted in yellow. *P<0.05; ** P<0.01; *** P<0.001.
FIG. 4. NUP-17 directly targets and binds to Plek2. (A) Plek2 was overexpressed in mouse fetal liver Ter119 negative erythroblasts. NUP-17 (40 μM) were added in the control cells and Plek2 overexpressed cells. Cell number was calculated 48 hours after culture. (B) Plek2 was overexpressed in Cos-7 cells. Phalloidin 647 was used to stain actin in the indicated cells. 10 μM of NUP-17 was used. (C) Quantitative analysis of B. (D) ITC experiments using the microCal ITC200 instrument. […]
FIG. 5. […] (A) NUP-17d was analyzed for the inhibitory effects on fetal liver erythroblasts as in FIG. 3. […] (D) Quantitative analysis of C. **P<0.01; *** P<0.001. […]
FIG. 11. […] Analogs of NUP-17d were analyzed for their effect on fetal liver erythroblast proliferation as in FIG. 3. […]

Plek2 = target: T2, Plek2 (Homo sapiens, UniProt Q9NYT0); experiment: Plek2-lipid binding (protein-lipid overlay); conditions: data not shown
T2 construct: we examined the ability of full-length protein to adhere to various phospholipids
T2 sequence (Q9NYT0 1-353): T1 sequence (Q9NYT0 1-353)
Procedure: (§4) FIG. 7. Plek2 binds to PtdIns(3,4)P2 and is critical for the PI3K signaling pathway. […] (B) Plek2 membrane association and cell spreading are PI3K dependent. Jurkat cells expressing GFP fused to the amino-terminus of wild-type Plek2 were plated on fibronectin. Real-time confocal imaging of live cells was performed. Shown is a cell expressing Plek2 before and after inhibition of PI3K with 100 nM wortmannin. (C) Bone marrow lineage negative cells from the indicated mice were treated with 2 units erythropoietin for the indicated amount of time (minutes). The level of Phospho-Akt and total Akt were analysis by Western blot assays. (D) Same as C except wild type bone marrow cells were used. 10 μM NUP-17d was used. The levels of the indicated proteins were analyzed by Western blot assays. (E) Kaplan-Meier survival analysis of indicated mice. Ptenfl/fl mice were crossed with Mx-Cre and Plek2 whole body knockout mice. The deletion of Pten in the hematopoietic tissues was induced by poly-IC injection. N=5 in each group. P=0.0067 between Ptenfl/flMx-Cre and Ptenfl/flMx-Cre, Plek2 KO. (F) Hematoxylin and eosin stain of the lungs from representative mice in E. Scale bar: 100 μm.
Rationale and Preliminary Data. […] To define the lipid binding specificity of Plek2, we examined the ability of full-length protein to adhere to various phospholipids.

GST-Plek2 [4] = target: T1, GST-Plek2; experiment: Isothermal titration calorimetry (ITC) binding to GST-tagged Plek2; conditions: FIG. 17
Procedure: as §1, §2, §3
Biophysical Assays and Counter-Screening. […]

phosphorylation of Akt = experiment: Akt phosphorylation in erythropoietin-treated bone marrow lineage negative cells (Western blot); assay type: cell-based, mouse; conditions: wild type bone marrow lineage negative cells, 10 μM
Procedure: as §4
To further determine the role of Plek2 in PI3K pathway, we overexpressed GFP-fusion Plek2 in Jurkat cells. […]

[5] = test system: Epo-induced myeloproliferation in wild-type mice; experiment: Erythropoietin (Epo) injection mouse model; assay type: in vivo
[6] = FIG. 17, general method: MicroCal ITC200, 25° C
[7] = 40 mg/kg every 2 days for 8 days

## CN1CCN([C@H](c2ccc(Cl)cc2)[C@@H](O)C(=O)c2c[nH]c3ccccc23)CC1 [17d-1a]
GST-Plek2 [1]; FIG. 17, value printed in uM, general method: MicroCal ITC200, 25° C
  Kd: 2.12 µM

## CN1CCN([C@@H](c2ccc(Cl)cc2)[C@H](O)C(=O)c2c[nH]c3ccccc23)CC1 [17d-1b]
GST-Plek2 [1]; [6]
  Kd: 0.357 µM

## CN1CCN(C(c2ccc(Cl)cc2)C(O)C(=O)c2c[nH]c3ccccc23)CC1 (stereo not shown) [17d]
GST-Plek2 [1]; [6]
  Kd: 0.4 µM

## CN1CCN(C(c2ccc(Cl)cc2)C(O)C(=O)c2c[nH]c3ccccc23)CC1 (stereo not shown) [NUP-17d]
[2]
  reversal of lamellipodia in Plek2 overexpressed Cos-7 cells: more potent inhibition
JAK2V617F knockin mice
  WBC count: largely normalized
  red blood cell count: significantly reduced
  side effects with the treatment: no gross side effects
  spleen size and extramedullary erythropoiesis: markedly reduced
  vascular occlusions in the lungs: dramatically ameliorated
[3]
  IC50: < 10000 nM
Plek2
  disruption of Plek2-lipid binding: did not disrupt Plek2-lipid binding
GST-Plek2 [4]
  ITC delta H: -1.9 kcal/mol
  ITC delta S: +22.9 cal/molK
Phosphorylation of Akt
  phosphorylation of Akt: significantly inhibited
[5]; [7]
  Epo-induced erythrocytosis in spleen red pulp and lung vasculature (histology): markedly ameliorated
  Epo-induced leukocytosis: significantly reduced
  Epo-induced reticulocytosis: significantly reduced
  Epo-induced splenomegaly: significantly reduced
  Epo-induced vascular occlusions: significantly reduced
[5]; 40 mg/kg, 2 days, preliminary studies
  tolerability: well-tolerated
[5]; Epo 5,000 U/kg every 2 days, compound 40 mg/kg every 2 days for 8 days, 3 weeks
  red blood cell count: did not significantly reduce
[5]; during the experiments
  hematologic or other abnormalities in treated mice: no hematologic or other abnormalities
